In the NIST ThermoML archive (doi:10.1016/j.fluid.2016.08.002):

Test: xn = mol fraction of the nth substance listed
Details: Gas, Vibrating tube method

S [hydrogen sulfide] + C
Details	mass density [kg/m3]
273.32 K, 16120 kPa, x2 = 0.8685	204.24
273.32 K, 16817 kPa, x2 = 0.8685	211.55
273.33 K, 17352 kPa, x2 = 0.8685	216.85
273.33 K, 21405 kPa, x2 = 0.8685	250.29
273.34 K, 17978 kPa, x2 = 0.8685	222.75
273.34 K, 18233 kPa, x2 = 0.8685	225.06
273.35 K, 18773 kPa, x2 = 0.8685	229.81
273.35 K, 19531 kPa, x2 = 0.8685	236.12
273.36 K, 20692 kPa, x2 = 0.8685	245.12
273.37 K, 20048 kPa, x2 = 0.8685	240.23
273.37 K, 24085 kPa, x2 = 0.714	364.7
293.18 K, 239 kPa, x2 = 0.8685	1.86
293.18 K, 469 kPa, x2 = 0.8685	3.71
293.18 K, 2890 kPa, x2 = 0.8685	25.81
293.18 K, 8263 kPa, x2 = 0.8685	79.99
293.18 K, 8722 kPa, x2 = 0.8685	85.68
293.18 K, 9972 kPa, x2 = 0.8685	100.39
293.18 K, 12003 kPa, x2 = 0.8685	124.94
293.18 K, 12415 kPa, x2 = 0.8685	130.08
293.18 K, 12830 kPa, x2 = 0.8685	135.13
293.18 K, 13726 kPa, x2 = 0.8685	145.96
293.19 K, 792 kPa, x2 = 0.8685	6.46
293.19 K, 1341 kPa, x2 = 0.8685	11.22
293.19 K, 2300 kPa, x2 = 0.8685	20.14
293.19 K, 3396 kPa, x2 = 0.8685	30.35
293.19 K, 3988 kPa, x2 = 0.8685	35.82
293.19 K, 4428 kPa, x2 = 0.8685	40.25
293.19 K, 6909 kPa, x2 = 0.8685	65.4
293.19 K, 7335 kPa, x2 = 0.8685	70.05
293.19 K, 7786 kPa, x2 = 0.8685	74.96
293.19 K, 9097 kPa, x2 = 0.8685	90.09
293.19 K, 9534 kPa, x2 = 0.8685	95.16
293.19 K, 10368 kPa, x2 = 0.8685	105.2
293.19 K, 10794 kPa, x2 = 0.8685	110.28
293.19 K, 11183 kPa, x2 = 0.8685	115.06
293.19 K, 11608 kPa, x2 = 0.8685	120.16
293.19 K, 13230 kPa, x2 = 0.8685	140.02
293.19 K, 16228 kPa, x2 = 0.8685	174.96
293.19 K, 16699 kPa, x2 = 0.8685	180.07
293.19 K, 17682 kPa, x2 = 0.8685	190.29
293.2 K, 1820 kPa, x2 = 0.8685	15.41
293.2 K, 4887 kPa, x2 = 0.8685	44.78
293.2 K, 5494 kPa, x2 = 0.8685	50.99
293.2 K, 5964 kPa, x2 = 0.8685	55.59
293.2 K, 6411 kPa, x2 = 0.8685	60.21
293.2 K, 14242 kPa, x2 = 0.8685	152.42
293.2 K, 14579 kPa, x2 = 0.8685	156.48
293.2 K, 14924 kPa, x2 = 0.8685	160.62
293.2 K, 15365 kPa, x2 = 0.8685	165.51
293.2 K, 15806 kPa, x2 = 0.8685	170.31
293.2 K, 17183 kPa, x2 = 0.8685	185.14
293.2 K, 18163 kPa, x2 = 0.8685	195.16
293.2 K, 20932 kPa, x2 = 0.8685	220.42
293.2 K, 21495 kPa, x2 = 0.8685	224.99
293.2 K, 27629 kPa, x2 = 0.8685	265.96
293.2 K, 28496 kPa, x2 = 0.8685	270.59
293.21 K, 1117 kPa, x2 = 0.8685	9.2
293.21 K, 23505 kPa, x2 = 0.8685	240.2
293.21 K, 25865 kPa, x2 = 0.8685	255.77
293.21 K, 26669 kPa, x2 = 0.8685	260.49
293.21 K, 29415 kPa, x2 = 0.8685	275.27
293.21 K, 29995 kPa, x2 = 0.8685	278.16
293.21 K, 30419 kPa, x2 = 0.8685	280.17
293.22 K, 20355 kPa, x2 = 0.8685	215.54
293.22 K, 24254 kPa, x2 = 0.8685	245.19
293.22 K, 25052 kPa, x2 = 0.8685	250.52
